Consider 27 compounds from patent US20150011751A1, “NOVEL TRIAZINE DERIVATIVE” (CARNA BIOSCIENCES, INC., priority 2012, published 2015).

Molecules are shown by their SMILES. Structures can show the parent of a compound that is named as a salt.

For this test, the target named is Dephosphorylated BTK (Homo sapiens, UniProt Q06187). The test is described as follows: Test of activity inhibition against dephosphorylated BTK (mobility shift assay).
Sequence of Dephosphorylated BTK (Q06187 whole entry): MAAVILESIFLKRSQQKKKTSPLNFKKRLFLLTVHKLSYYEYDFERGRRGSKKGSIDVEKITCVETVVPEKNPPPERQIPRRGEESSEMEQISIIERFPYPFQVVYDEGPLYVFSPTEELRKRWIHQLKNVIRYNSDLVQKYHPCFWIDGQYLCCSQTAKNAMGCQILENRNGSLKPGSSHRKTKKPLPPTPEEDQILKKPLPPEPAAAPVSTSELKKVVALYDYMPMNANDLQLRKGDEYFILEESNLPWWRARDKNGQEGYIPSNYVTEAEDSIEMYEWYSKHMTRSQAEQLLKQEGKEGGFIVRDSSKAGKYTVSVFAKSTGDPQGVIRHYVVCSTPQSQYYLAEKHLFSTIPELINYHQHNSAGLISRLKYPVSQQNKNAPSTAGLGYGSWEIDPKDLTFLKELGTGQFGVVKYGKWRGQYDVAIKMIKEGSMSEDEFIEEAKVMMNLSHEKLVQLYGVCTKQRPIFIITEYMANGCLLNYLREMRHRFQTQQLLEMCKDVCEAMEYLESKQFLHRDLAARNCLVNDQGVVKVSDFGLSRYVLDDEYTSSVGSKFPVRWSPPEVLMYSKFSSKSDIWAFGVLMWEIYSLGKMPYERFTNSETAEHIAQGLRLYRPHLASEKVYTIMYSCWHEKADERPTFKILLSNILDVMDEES
Take `Nc1nc(Nc2ccn([C@H]3CCOC3)c2)nc(-c2cccc(N3CCc4cc(C5CC5)cc(F)c4C3=O)c2CO)n1` [Example 249, (S)-2-[3-(4-Amino-6-{[1-(tetrahydrofuran-3-yl)-1H-pyrrol-3-yl]ami-no}-1,3,5-triazin-2-yl)-2-(hydroyxmethyl)phenyl]-6-cyclopropyl-8-fluoro-3,4-dihydro-isoquinolin-1(2H)-one]: the IC50 is 1 nM.

On to `Nc1nc(Nc2ccc(N3CCOCC3)cc2)nc(-c2cccc(N3CCc4c(sc5c4CCCC5)C3=O)c2CO)n1` [Example 227, 2-(3-{4-Amino-6-[(4-morpho-linophenyl)amino]-1,3,5-triazin-2-yl}-2-(hydroxymethyl)phe-nyl)-3,4,5,6,7,8-hexa-hydrobenzo[4,5]thieno [2,3-c]pyridin-1(2H)-one], for which the IC50 was determined as 3.5 nM.

For `Nc1nc(Nc2ccc(Cc3nnn[nH]3)cc2)nc(-c2cccc(N3CCc4cc(C5CC5)cc(F)c4C3=O)c2CO)n1` [Example 198, 2-{3-[4-({4-[(1H-Tetra-zol-5-yl)methyl]phe-nyl}amino)-6-amino-1,3,5-triazin-2-yl]-2-(hy-droxymethyl)phenyl}-6-cyclopropyl-8-fluoro-3,4-dihydroisoquinolin-1(2H)-one], the IC50 stood at 3.7 nM.

Turning to `CC(=O)OCc1c(NC(=O)c2ccc(C(C)(C)C)cc2)cccc1-c1nc(N)nc(Nc2ccc(O)cc2)n1` [Example 110, 2-{4-Amino-6-[(4-hydroxy-phenyl)amino]-1,3,5-triazin-2-yl}-6-[4-(tert-butyl)benzamido] benzyl acetate], the IC50 was 17.9 nM.

Take `CC1(c2ccc(C(=O)Nc3cccc(-c4nc(N)nc(Nc5ccc(N6CCOCC6)cc5)n4)c3CO)cc2)CC1` [Example 192, N-(3-{4-Amino-6-[(4-morph-olinophenyl)amino]-1,3,5-triazin-2-yl}-2-(hydroxymethyl)phe-nyl)-4-(1-methylcyclo-propyl)benzamide]: the IC50 was 0.7 nM.

`CC(C)(C)c1ccc(C(=O)Nc2cccc(-c3nc(N)nc(Nc4ccc(CN5CCOCC5)cc4)n3)c2CO)cc1` [Example 79, N-[3-(4-Amino-6-{[4-(morpho-linomethyl)phe-nyl]amino}-1,3,5-triazin-2-yl)-2-(hydroxymeth-yl)phenyl]-4-(tert-butyl)benzamide]: the IC50 was found to be 0.6 nM.

For the compound `CCCn1cc(Nc2nc(N)nc(-c3cccc(N4CCc5cc(C6CC6)cc(F)c5C4=O)c3CO)n2)cn1` [Example 262, 2-(3-{4-Amino-6-[(1-pro-pyl-1H-pyrazol-4-yl)amino]-1,3,5-triazin-2-yl}-2-(hydroxymeth-yl)phenyl)-6-cyclopro-pyl-8-fluoro-3,4-dihy-droisoquinolin-1(2H)-one], the IC50 was 0.8 nM.

As to `Cc1c(NC(=O)c2ccc(C(C)(C)C)cc2)cccc1-c1nc(N)nc(Nc2ccc(N3C[C@@H](C)O[C@@H](C)C3)cc2)n1` [Example 85, N-[3-(4-Amino-6-{[4-((2S, 6R)-2,6-dimethyl-morpholino)phenyl]ami-no}-1,3,5-triazin-2-yl)-2-methylphenyl]-4-(tert-butyl)benzamide], the IC50 was determined as 5.8 nM.

Turning to `CC(=O)N1CCN(c2ccc(Nc3nc(N)nc(-c4cccc(N5CCc6cc(C7CC7)cc(F)c6C5=O)c4CO)n3)cc2)CC1` [Example 220, 2-[3-(4-{[4-(4-Acetyl-piperazin-1-yl)phenyl]amino}-6-amino-1,3,5-triazin-2-yl)-2-(hy-droxymethyl)phenyl]-6-cyclopropyl-8-fluoro-3,4-dihydroisoquinolin-1(2H)-one], the IC50 came out at 2.3 nM.

For the compound `CC(C)(C)c1ccc(C(=O)Nc2cccc(-c3nc(N)nc(Nc4ccc(N5CCOC5=O)cc4)n3)c2CO)cc1` [Example 156, N-[3-(4-Amino-6-{[4-(2-oxooxazolidin-3-yl)phenyl]amino}-1,3,5-tri-azin-2-yl)-2-(hydroxy-methyl)phenyl]-4-(tert-butyl)benzamide], the IC50 worked out at 0.5 nM.

Take `CC(C)(C)c1ccc(C(=O)Nc2cccc(-c3nc(N)nc(Nc4cccc(O)c4)n3)c2CO)cc1` [Example 121, N-(3-{4-Amino-6-[(3-hy-droxyphenyl)amino]-1,3,5-triazin-2-yl}-2-(hydroxymethyl)phenyl)-4-(tert-butyl)benza-mide]: the IC50 stood at 1.2 nM.

Consider `Nc1nc(Nc2ccc(N3CCOCC3)cc2)nc(-c2cccc(NC(=O)c3ccc4c(c3)CCCC4)c2CO)n1` [Example 102, N-(3-{4-Amino-6-[(4-morpholinophenyl)amino]-1,3,5-triazin-2-yl}-2-(hydroxymethyl)phe-nyl)-5,6,7,8-tetrahydro-naphthalene-2-carbox-amide], for which the IC50 was found to be 8.7 nM.

Consider `Nc1nc(Nc2ccc(OCCN3CCOCC3)cc2)nc(-c2cccc(N3CCc4cc(C5CC5)cc(F)c4C3=O)c2CO)n1` [Example 196, 2-[3-(4-Amino-6-{[4-(2-morpholinoethoxy)phe-nyl]amino}-1,3,5-tri-azin-2-yl)-2-(hydroxy-methyl)phenyl]-6-cyclo-propyl-8-fluoro-3,4-dihydroisoquinolin-1(2H)-one formate], for which the IC50 worked out at 3.4 nM.

Regarding `CC(C)(C)c1ccc(C(=O)Nc2cccc(-c3nc(N)nc(Nc4cccc(C(=O)O)c4)n3)c2CO)cc1` [Example 153, 3-[(4-Amino-6-{3-[4-(tert-butyl)benzamido]-2-(hydroxymethyl)phe-nyl}-1,3,5-triazin-2-yl)amino]benzoic acid], the IC50 was determined as 4.9 nM.

Turning to `CC(C)(C)c1ccc(C(=O)Nc2cccc(-c3nc(N)nc(Nc4ccc(OCCn5cccc5)cc4)n3)c2CO)cc1` [Example 150, N-{3-[4-({4-[2-(1H-Pyr-rol-1-yl)ethoxy]phe-nyl}amino)-6-amino-1,3,5-triazin-2-yl]-2-(hy-droxymethyl)phenyl}-4-(tert-butyl)benzamide], the IC50 was determined as 0.8 nM.

In the case of `COCCOc1ccc(Nc2nc(N)nc(-c3cccc(NC(=O)c4cc5c(s4)CCCC5)c3CO)n2)cc1OCCOC` [Example 131, N-[3-(4-Amino-6-{[3,4-bis(2-methoxyethoxy)phenyl]amino}-1,3,5-tri-azin-2-yl)-2-(hydroxy-methyl)phenyl]-4,5,6,7-tetrahydrobenzo[b] thiophene-2-carboxamide], the IC50 is 0.4 nM.

For `CN(C)CCOc1ccc(Nc2nc(N)nc(-c3cccc(NC(=O)c4ccc(C(C)(C)C)cc4)c3CO)n2)cc1` [Example 166, N-{3-[4-Amino-6-({4-[2-(dimethylamino)eth-oxy]phenyl}amino)-1,3,5-triazin-2-yl]-2-(hy-droxymethyl)phenyl}-4-(tert-butyl)benzamide], the IC50 was 1 nM.

On to `CC1(Cn2cc(Nc3nc(N)nc(-c4cccc(N5CCc6cc(C7CC7)cc(F)c6C5=O)c4CO)n3)cn2)CC1` [Example 273, 2-{3-[4-Amino-6-({1-[(1-methylcyclopropyl)methyl]-1H-pyrazol-4-yl}amino)-1,3,5-triazin-2-yl]-2-(hydroxymeth-yl)phenyl}-6-cyclo-propyl-8-fluoro-3,4-di-hydroisoquinolin-1(2H)-one], for which the IC50 was 2.4 nM.

Consider `Nc1nc(Nc2ccc(N3CCCC(O)C3)cc2)nc(-c2cccc(NC(=O)c3cc4c(s3)CCCC4)c2CO)n1` (stereo not drawn) [Example 143, N-[3-(4-Amino-6-{[4-(3-hydroxypiperidin-1-yl)phenyl]amino}-1,3,5-triazin-2-yl)-2-(hy-droxymethyl)phenyl]-4,5,6,7-tetrahydrobenzo [b]thiophene-2-carbox-amide], for which the IC50 worked out at 0.9 nM.

For the compound `Cc1cc(Nc2nc(N)nc(-c3cccc(NC(=O)c4ccc(C(C)(C)C)cc4)c3CO)n2)ccc1O` [Example 117, N-(3-{4-Amino-6-[(4-hy-droxy-3-methylphenyl)amino]-1,3,5-triazin-2-yl)-2-(hydroxymeth-yl)phenyl)-4-(tert-butyl)benzamide], the IC50 came out at 0.9 nM.

As for `Nc1nc(Nc2ccn(CC3CC3)c2)nc(-c2cccc(N3CCc4cc(C5CC5)cc(F)c4C3=O)c2CO)n1` [Example 248, 2-[3-(4-Amino-6-{[1-(cyclo-propylmethyl)-1H-pyrrol-3-yl]amino}-1,3,5-triazin-2-yl)-2-(hydroxymethyl)phenyl]-6-cyclopropyl-8-fluoro-3,4-dihydroisoquinolin-1(2H)-one], the IC50 turned out to be 3.2 nM.

As to `CC(C)(C)c1ccc(C(=O)Nc2cccc(-c3nc(N)nc(Nc4ccc5[nH]ncc5c4)n3)c2CO)cc1` [Example 140, N-(3-{4-[(1H-Indazol-5-yl)amino]-6-amino-1,3,5-triazin-2-yl}-2-(hydroxymethyl)phenyl)-4-(tert-butyl)benzamide], the half-maximal inhibitory concentration (IC50) was 1.7 nM.

For the compound `CC(C)(C)c1ccc(C(=O)Nc2cccc(-c3nc(N)nc(Nc4ccc(Cn5ccccc5=O)cc4)n3)c2CO)cc1` [Example 173, N-{3-[4-Amino-6-({4-[(2-oxopyridin-1(2H)-yl)methyl]phenyl}amino)-1,3,5-triazin-2-yl]-2-(hydroxymethyl)phe-nyl}-4-(tert-butyl) benzamide], the IC50 was found to be 0.6 nM.

For the compound `Cc1c(NC(=O)c2ccc(C(C)(C)C)cc2)cccc1-c1nc(N)nc(Nc2ccc(N3CCCOCC3)cc2)n1` [Example 86, N-[3-(4-{[4-(1,4-Oxaze-pan-4-yl)phenyl]amino}-6-amino-1,3,5-tria-zin-2-yl)-2-methyl-phenyl]-4-(tert-butyl)benzamide], the IC50 was 4 nM.

As for `Nc1nc(Nc2ccc(N3CCCC3)cc2)nc(-c2cccc(N3CCc4cc(C5CC5)cc(F)c4C3=O)c2CO)n1` [Example 244, 2-[3-(4-Amino-6-{[4-(pyr-rolidin-1-yl)phenyl]amino}-1,3,5-triazin-2-yl)-2-(hydroxymeth-yl)phenyl]-6-cyclopro-pyl-8-fluoro-3,4-dihy-droisoquinolin-1(2H)-one], the IC50 was found to be 4.6 nM.

For the compound `Nc1nc(Nc2ccc(Cn3cccn3)cc2)nc(-c2cccc(N3CCc4cc(C5CC5)cc(F)c4C3=O)c2CO)n1` [Example 50, 2-{3-[4-({4-[(1H-Pyra-zol-1-yl)methyl]phenyl}amino)-6-amino-1,3,5-triazin-2-yl]-2-(hy-droxymethyl)phenyl}-6-cyclopropyl-8-fluoro-3,4-dihydroisoquino-lin-1(2H)-one], the IC50 amounted to 1 nM.

As to `CC(C)(C)n1cc(Nc2nc(N)nc(-c3cccc(N4CCc5cc(C6CC6)cc(F)c5C4=O)c3CO)n2)cn1` [Example 241, 2-[3-(4-Amino-6-{[1-(tert-butyl)-1H-pyrazol-4-yl]amino}-1,3,5-tri-azin-2-yl)-2-(hydroxy-methyl)phenyl]-6-cyclo-propyl-8-fluoro-3,4-dihydroisoquinolin-1(2H)-one], the IC50 turned out to be 0.6 nM.
